Reference: publication PMC6906348 (Therapeutic Advances in Medical Oncology, 2019)

System: patients with advanced HCC
Test: Safety: adverse events
Format: in vivo, human
Details: for ALT increased (AE regardless of study drug relationship) / AST increased (AE regardless of study drug relationship) / Abdominal pain (AE regardless of study drug relationship) / Acute kidney injury (AE regardless of study drug relationship) / Anemia (AE regardless of study drug relationship) / Ascites (AE regardless of study drug relationship) / Blood bilirubin increased (AE regardless of study drug relationship) / Blood creatinine increased (AE regardless of study drug relationship) / Constipation (AE regardless of study drug relationship) / Decreased appetite (AE regardless of study drug relationship) / Diarrhea (AE regardless of study drug relationship) / Fatigue (AE regardless of study drug relationship) / Hyperbilirubinemia (AE regardless of study drug relationship) / Hypoalbuminemia (AE regardless of study drug relationship) / Insomnia (AE regardless of study drug relationship) / Leukopenia (AE regardless of study drug relationship) / Nausea (AE regardless of study drug relationship) / Number of patients with at least one event (AE regardless of study drug relationship) / Peripheral edema (AE regardless of study drug relationship) / Platelet count decreased (AE regardless of study drug relationship) / Pyrexia (AE regardless of study drug relationship) / Vomiting (AE regardless of study drug relationship) / Weight decreased (AE regardless of study drug relationship): patients n (%)
[1] = 300 mg capsule BID n = 9, All grades
[2] = 300 mg capsule BID n = 9, Grades 3/4
[3] = 400 mg tablet BID n = 2, All grades
[4] = 400 mg tablet BID n = 2, Grades 3/4
[5] = 600 mg capsule BID n = 27, All grades

## CNC(=O)c1ccc(-c2cnc3ncc(Cc4ccc5ncccc5c4)n3n2)cc1F [capmatinib]
300 mg BID capsules, first 28 days of treatment, six evaluable patients
  predefined qualifying adverse events in dose-determining stage: No qualifying AEs
[1]
  ALT increased (AE regardless of study drug relationship): 0
  AST increased (AE regardless of study drug relationship): 1 (11)
  Abdominal pain (AE regardless of study drug relationship): 2 (22)
  Acute kidney injury (AE regardless of study drug relationship): 2 (22)
  Anemia (AE regardless of study drug relationship): 3 (33)
  Ascites (AE regardless of study drug relationship): 1 (11)
  Blood bilirubin increased (AE regardless of study drug relationship): 2 (22)
  Blood creatinine increased (AE regardless of study drug relationship): 3 (33)
  Constipation (AE regardless of study drug relationship): 2 (22)
  Decreased appetite (AE regardless of study drug relationship): 3 (33)
  Diarrhea (AE regardless of study drug relationship): 5 (56)
  Fatigue (AE regardless of study drug relationship): 3 (33)
  Hyperbilirubinemia (AE regardless of study drug relationship): 0
  Hypoalbuminemia (AE regardless of study drug relationship): 2 (22)
  Insomnia (AE regardless of study drug relationship): 1 (11)
  Leukopenia (AE regardless of study drug relationship): 0
  Nausea (AE regardless of study drug relationship): 6 (67)
  Number of patients with at least one event (AE regardless of study drug relationship): 9 (100)
  Peripheral edema (AE regardless of study drug relationship): 2 (22)
  Platelet count decreased (AE regardless of study drug relationship): 0
  Pyrexia (AE regardless of study drug relationship): 1 (11)
  Vomiting (AE regardless of study drug relationship): 4 (44)
  Weight decreased (AE regardless of study drug relationship): 2 (22)
[2]
  ALT increased (AE regardless of study drug relationship): 0
  AST increased (AE regardless of study drug relationship): 1 (11)
  Abdominal pain (AE regardless of study drug relationship): 0
  Acute kidney injury (AE regardless of study drug relationship): 1 (11)
  Anemia (AE regardless of study drug relationship): 2 (22)
  Ascites (AE regardless of study drug relationship): 0
  Blood bilirubin increased (AE regardless of study drug relationship): 1 (11)
  Blood creatinine increased (AE regardless of study drug relationship): 0
  Constipation (AE regardless of study drug relationship): 0
  Decreased appetite (AE regardless of study drug relationship): 0
  Diarrhea (AE regardless of study drug relationship): 1 (11)
  Fatigue (AE regardless of study drug relationship): 0
  Hyperbilirubinemia (AE regardless of study drug relationship): 0
  Hypoalbuminemia (AE regardless of study drug relationship): 1 (11)
  Insomnia (AE regardless of study drug relationship): 0
  Leukopenia (AE regardless of study drug relationship): 0
  Nausea (AE regardless of study drug relationship): 0
  Number of patients with at least one event (AE regardless of study drug relationship): 5 (56)
  Peripheral edema (AE regardless of study drug relationship): 0
  Platelet count decreased (AE regardless of study drug relationship): 0
  Pyrexia (AE regardless of study drug relationship): 0
  Vomiting (AE regardless of study drug relationship): 1 (11)
  Weight decreased (AE regardless of study drug relationship): 0
[3]
  ALT increased (AE regardless of study drug relationship): 1 (50)
  AST increased (AE regardless of study drug relationship): 0
  Abdominal pain (AE regardless of study drug relationship): 0
  Acute kidney injury (AE regardless of study drug relationship): 0
  Anemia (AE regardless of study drug relationship): 0
  Ascites (AE regardless of study drug relationship): 0
  Blood bilirubin increased (AE regardless of study drug relationship): 0
  Blood creatinine increased (AE regardless of study drug relationship): 0
  Constipation (AE regardless of study drug relationship): 1 (50)
  Decreased appetite (AE regardless of study drug relationship): 0
  Diarrhea (AE regardless of study drug relationship): 0
  Fatigue (AE regardless of study drug relationship): 1 (50)
  Hyperbilirubinemia (AE regardless of study drug relationship): 0
  Hypoalbuminemia (AE regardless of study drug relationship): 0
  Insomnia (AE regardless of study drug relationship): 1 (50)
  Leukopenia (AE regardless of study drug relationship): 0
  Nausea (AE regardless of study drug relationship): 1 (50)
  Number of patients with at least one event (AE regardless of study drug relationship): 2 (100)
  Peripheral edema (AE regardless of study drug relationship): 0
  Platelet count decreased (AE regardless of study drug relationship): 0
  Pyrexia (AE regardless of study drug relationship): 0
  Vomiting (AE regardless of study drug relationship): 1 (50)
  Weight decreased (AE regardless of study drug relationship): 0
[4]
  ALT increased (AE regardless of study drug relationship): 1 (50)
  AST increased (AE regardless of study drug relationship): 0
  Abdominal pain (AE regardless of study drug relationship): 0
  Acute kidney injury (AE regardless of study drug relationship): 0
  Anemia (AE regardless of study drug relationship): 0
  Ascites (AE regardless of study drug relationship): 0
  Blood bilirubin increased (AE regardless of study drug relationship): 0
  Blood creatinine increased (AE regardless of study drug relationship): 0
  Constipation (AE regardless of study drug relationship): 0
  Decreased appetite (AE regardless of study drug relationship): 0
  Diarrhea (AE regardless of study drug relationship): 0
  Fatigue (AE regardless of study drug relationship): 0
  Hyperbilirubinemia (AE regardless of study drug relationship): 0
  Hypoalbuminemia (AE regardless of study drug relationship): 0
  Insomnia (AE regardless of study drug relationship): 0
  Leukopenia (AE regardless of study drug relationship): 0
  Nausea (AE regardless of study drug relationship): 0
  Number of patients with at least one event (AE regardless of study drug relationship): 1 (50)
  Peripheral edema (AE regardless of study drug relationship): 0
  Platelet count decreased (AE regardless of study drug relationship): 0
  Pyrexia (AE regardless of study drug relationship): 0
  Vomiting (AE regardless of study drug relationship): 0
  Weight decreased (AE regardless of study drug relationship): 0
[5]
  ALT increased (AE regardless of study drug relationship): 6 (22)
  AST increased (AE regardless of study drug relationship): 11 (41)
